Measurements reported in the NIST ThermoML archive (doi:10.1016/j.jct.2008.02.019).

Tests used:
[1] = refractive index (Na D-line) (dimensionless); conditions: 101.33 kPa, Liquid, Standard Abbe refractometry
[2] = 101.33 kPa, Liquid
[3] = xn = mol fraction of the nth substance listed; conditions: 101 kPa, Liquid
[4] = excess molar enthalpy (molar enthalpy of mixing); xn = mol fraction of the nth substance listed; conditions: 101 kPa, Liquid, Flow calorimetry

CCCC[n+]1ccc(C)cc1.F[B-](F)(F)F [1-butyl-4-methylpyridinium tetrafluoroborate]
Conditions | mass density, [2] [kg/m3] | refractive index, [1]
298.15 K | 1183.49 | 1.4517
318.15 K | 1169.12 | 1.447

CCCC[n+]1ccc(C)cc1.F[B-](F)(F)F [1-butyl-4-methylpyridinium tetrafluoroborate] + CCCCCO
[3], 318.15 K
Conditions | mass density [kg/m3]
x1 = 0.5651 | 1060.4
x1 = 0.6035 | 1072.1
x1 = 0.6715 | 1091.9
x1 = 0.7601 | 1115.3
x1 = 0.8041 | 1126.1
x1 = 0.8616 | 1139.6
x1 = 0.912 | 1150.8

CCCC[n+]1ccc(C)cc1.F[B-](F)(F)F [1-butyl-4-methylpyridinium tetrafluoroborate] + CCCCO
Conditions | excess molar enthalpy [kJ/mol] | mass density [kg/m3]
[3], 298.15 K, x1 = 0.5948 | – | 1094.4
[3], 298.15 K, x1 = 0.692 | – | 1120.2
[3], 298.15 K, x1 = 0.739 | – | 1131.5
[3], 298.15 K, x1 = 0.7851 | – | 1141.8
[3], 298.15 K, x1 = 0.8916 | – | 1163.9
[3], 318.15 K, x1 = 0.0548 | – | 833.2
[3], 318.15 K, x1 = 0.1169 | – | 875.7
[3], 318.15 K, x1 = 0.2301 | – | 940.7
[3], 318.15 K, x1 = 0.3406 | – | 992.1
[3], 318.15 K, x1 = 0.4471 | – | 1033.5
[3], 318.15 K, x1 = 0.564 | – | 1071.4
[3], 318.15 K, x1 = 0.6758 | – | 1102.2
[3], 318.15 K, x1 = 0.7856 | – | 1128.1
[3], 318.15 K, x1 = 0.8427 | – | 1140
[3], 318.15 K, x1 = 0.887 | – | 1148.6
[4], 318.15 K, x1 = 0.0242 | 0.468 | –
[4], 318.16 K, x1 = 0.0613 | 0.944 | –
[4], 318.17 K, x1 = 0.1029 | 1.42 | –
[4], 318.18 K, x1 = 0.1466 | 1.79 | –
[4], 318.19 K, x1 = 0.1938 | 2.21 | –
[4], 318.2 K, x1 = 0.24 | 2.52 | –
[4], 318.21 K, x1 = 0.2864 | 2.74 | –
[4], 318.22 K, x1 = 0.3344 | 2.9 | –
[4], 318.23 K, x1 = 0.3708 | 2.95 | –
[4], 318.24 K, x1 = 0.4149 | 2.96 | –
[4], 318.25 K, x1 = 0.4635 | 2.89 | –
[4], 318.26 K, x1 = 0.5162 | 2.79 | –
[4], 318.27 K, x1 = 0.5729 | 2.61 | –
[4], 318.28 K, x1 = 0.6488 | 2.27 | –
[4], 318.29 K, x1 = 0.7232 | 1.94 | –
[4], 318.3 K, x1 = 0.7962 | 1.51 | –
[4], 318.31 K, x1 = 0.8569 | 1.16 | –
[4], 318.32 K, x1 = 0.9006 | 0.817 | –
[4], 318.33 K, x1 = 0.9435 | 0.538 | –

CCCC[n+]1ccc(C)cc1.F[B-](F)(F)F [1-butyl-4-methylpyridinium tetrafluoroborate] + CCCO
Conditions | excess molar enthalpy [kJ/mol] | mass density [kg/m3]
[3], 298.15 K, x1 = 0.0154 | – | 815.6
[3], 298.15 K, x1 = 0.0271 | – | 827.2
[3], 298.15 K, x1 = 0.2988 | – | 1006.8
[3], 298.15 K, x1 = 0.3987 | – | 1047.4
[3], 298.15 K, x1 = 0.4965 | – | 1079.8
[3], 298.15 K, x1 = 0.5972 | – | 1107.8
[3], 298.15 K, x1 = 0.6889 | – | 1129.1
[3], 298.15 K, x1 = 0.696 | – | 1130.6
[3], 298.15 K, x1 = 0.7812 | – | 1147.9
[3], 298.15 K, x1 = 0.8841 | – | 1165.9
[3], 318.15 K, x1 = 0.0549 | – | 837.6
[3], 318.15 K, x1 = 0.1008 | – | 875.1
[3], 318.15 K, x1 = 0.1969 | – | 939.6
[3], 318.15 K, x1 = 0.3103 | – | 997.6
[3], 318.15 K, x1 = 0.3828 | – | 1027.5
[3], 318.15 K, x1 = 0.4381 | – | 1047.4
[3], 318.15 K, x1 = 0.4534 | – | 1052.4
[3], 318.15 K, x1 = 0.4901 | – | 1064
[3], 318.15 K, x1 = 0.6039 | – | 1095.2
[3], 318.15 K, x1 = 0.6726 | – | 1111.2
[3], 318.15 K, x1 = 0.8248 | – | 1141.4
[3], 318.15 K, x1 = 0.8967 | – | 1156.9
[3], 318.15 K, x1 = 0.9191 | – | 1153.3
[4], 298.15 K, x1 = 0.012 | 0.132 | –
[4], 298.15 K, x1 = 0.0243 | 0.216 | –
[4], 298.15 K, x1 = 0.0308 | 0.301 | –
[4], 298.15 K, x1 = 0.3198 | 2.49 | –
[4], 298.15 K, x1 = 0.3532 | 2.46 | –
[4], 298.15 K, x1 = 0.3908 | 2.42 | –
[4], 298.15 K, x1 = 0.4344 | 2.34 | –
[4], 298.15 K, x1 = 0.4819 | 2.26 | –
[4], 298.15 K, x1 = 0.5374 | 2.11 | –
[4], 298.15 K, x1 = 0.6008 | 1.91 | –
[4], 298.15 K, x1 = 0.6734 | 1.65 | –
[4], 298.15 K, x1 = 0.752 | 1.32 | –
[4], 298.15 K, x1 = 0.8319 | 0.99 | –
[4], 298.15 K, x1 = 0.9181 | 0.579 | –
[4], 318.15 K, x1 = 0.0189 | 0.388 | –
[4], 318.16 K, x1 = 0.054 | 0.96 | –
[4], 318.17 K, x1 = 0.093 | 1.47 | –
[4], 318.18 K, x1 = 0.1341 | 1.9 | –
[4], 318.19 K, x1 = 0.1775 | 2.27 | –
[4], 318.2 K, x1 = 0.2167 | 2.55 | –
[4], 318.21 K, x1 = 0.2312 | 2.68 | –
[4], 318.22 K, x1 = 0.2581 | 2.8 | –
[4], 318.23 K, x1 = 0.2912 | 2.9 | –
[4], 318.24 K, x1 = 0.331 | 2.96 | –
[4], 318.25 K, x1 = 0.3847 | 2.94 | –
[4], 318.26 K, x1 = 0.4488 | 2.89 | –
[4], 318.27 K, x1 = 0.5249 | 2.72 | –
[4], 318.28 K, x1 = 0.6069 | 2.45 | –
[4], 318.29 K, x1 = 0.6964 | 2.08 | –
[4], 318.3 K, x1 = 0.7815 | 1.69 | –
[4], 318.31 K, x1 = 0.846 | 1.29 | –
[4], 318.32 K, x1 = 0.9043 | 0.825 | –
[4], 318.33 K, x1 = 0.9568 | 0.436 | –
